Measurements taken from PubChem BioAssay (NCI).
“And” between values parts separate entries of the source, which are not always exact repeats. Equal values may be shown once.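 Results reflect a 48-hour exposure of cells in 96-well plates to compound at five concentrations. Abbreviation: GI50, concentration required for 50% inhibition of growth. TGI is the concentration that stops growth completely.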

Experiments:
Assay in all cases: inhibition of tumour cell growth, NCI panel, 48 h
[1] = test system: CCRF-CEM leukemia
[2] = test system: HOP-92 NSCLC
[3] = test system: HS 578T breast
[4] = test system: IGROV1 ovarian
[5] = test system: MCF7 breast
[6] = test system: RPMI-8226 leukemia
[7] = test system: OVCAR-5 ovarian
[8] = test system: EKVX NSCLC
[9] = test system: HT29 colon
[10] = test system: NCI-H460 lung

SMILES | GI50 [1] | TGI [1] | GI50 [2] | TGI [2] | GI50 [3] | TGI [3] | GI50 [4] | TGI [4] | GI50 [5] | TGI [5] | GI50 [6] | TGI [6] | GI50 [7] | TGI [7] | GI50 [8] | TGI [8] | GI50 [9] | TGI [9] | GI50 [10] | TGI [10]
O=C(c1ccc(OCCN2CCCCC2)cc1)c1c(-c2ccc(O)cc2)sc2cc(O)ccc12 | 5.55 µM and 1.85 µM | 43.9 µM and > 29.8 µM | 1.43 µM and 5.51 µM | 6.72 µM and 29 µM | 2.99 µM and 9.71 µM | 22.8 µM and 47.8 µM | 12.3 µM and 16.5 µM | 28.9 µM and 38.5 µM | 1.48 µM | 15.6 µM and 14 µM | 5.54 µM and 2.41 µM | 77 µM and > 23.1 µM | 16 µM and 20.6 µM | 30.8 µM and 43.7 µM | 9.34 µM and 12.8 µM | 25.7 µM and 33.9 µM | 14.9 µM and 4.1 µM | 32.3 µM and 33.4 µM | 4.29 µM and 7.96 µM | 17.1 µM and 25.9 µM
COC(=O)[C@H]1[C@@H](O)[C@@]2(O)c3c(OC)cc(O[C@@H]4O[C@@H]([C@H](O)CO)CO[C@H]4OC)cc3O[C@@]2(c2ccc(OC)cc2)[C@@H]1c1ccccc1 | 0.00545 µM | 0.125 µM | 0.00325 µM | 0.0151 µM | 0.00596 µM | 0.0806 µM | 0.00585 µM | 0.0717 µM | 0.00312 µM | 0.033 µM | 0.00314 µM | 0.0113 µM | 0.00383 µM | 0.0311 µM | 0.00659 µM | 0.105 µM | 0.003 µM | 0.0142 µM | 0.004 µM | 0.0695 µM
NC(=O)/C(=C\c1ccncc1)c1cccc2ccccc12 | – | > 100 µM | – | > 100 µM | – | > 100 µM | – | > 100 µM | – | > 100 µM | – | > 100 µM | – | > 100 µM | – | > 100 µM | – | > 100 µM | – | > 100 µM
CCN1C(=O)N(CC)C2C1NN=c1s/c(=C\c3ccccc3F)c(=O)n12 (centres undefined) | 0.0386 µM | > 100 µM | 1.11 µM | 69 µM | 0.0345 µM | > 100 µM | 0.0512 µM | > 43.4 µM | 0.0325 µM | > 63.6 µM | 0.0415 µM | > 37.7 µM | 0.0628 µM | > 100 µM | 0.0481 µM | > 100 µM | 0.0319 µM | – | 0.0355 µM | > 40.6 µM
O=C1/C=C/[C@@H](O)[C@@H]2C[C@@H](O)C[C@H]2/C=C/CCC[C@H](CCc2ccc(C(F)(F)F)cc2)O1 | 0.314 µM | 49 µM | 0.227 µM | 0.89 µM | 0.0602 µM | > 27.2 µM | 0.309 µM | 7.01 µM | 0.197 µM | 0.457 µM | 0.282 µM | 0.806 µM | 0.505 µM | > 100 µM | 0.252 µM | 6.67 µM | 0.127 µM | 2.1 µM | 0.388 µM | > 55.4 µM
COc1c2ccoc2cc2oc(=O)ccc12 | – | > 100 µM | – | > 100 µM | – | > 100 µM | – | > 100 µM | – | > 100 µM | – | > 100 µM | – | > 100 µM | – | > 100 µM | – | > 100 µM | – | > 100 µM
CN1CCC(CNc2ccc3ncc(-c4cccc(OC(F)(F)F)c4)n3n2)CC1 | 3.36 µM and 2.03 µM | 15.9 µM and 5.78 µM | 1.2 µM and 0.383 µM | 3.81 µM and 3.66 µM | 1.66 µM and 1.63 µM | 4.5 µM and 7.17 µM | 2.91 µM and 2.27 µM | 9.09 µM and 9.11 µM | 1.61 µM and 1.81 µM | 3.25 µM and 5.46 µM | 2.41 µM and 1.91 µM | 7.18 µM and 5.36 µM | 2.68 µM and 2.95 µM | 8.32 µM and > 10 µM | 3.45 µM and 9.78 µM | 14.5 µM and > 10 µM | 1.75 µM and 1.85 µM | 4.49 µM and 5.15 µM | 2.16 µM and 2.94 µM | 5.68 µM and > 10 µM
Cc1cccc(-c2nn3c(c2-c2ccnc4ccc(C(N)=O)cc24)CCC3)n1 | > 100 µM | > 100 µM | > 100 µM | > 100 µM | > 100 µM | > 100 µM | > 92.3 µM | > 100 µM | > 100 µM | > 100 µM | > 100 µM | > 100 µM | > 100 µM | > 100 µM | > 100 µM | > 100 µM | 52.5 µM | > 100 µM | > 100 µM | > 100 µM
COc1ccccc1/C=C/C(=O)c1c(O)cc2occc2c1OC | 9.72 µM | > 100 µM | 2.98 µM | 26.6 µM | 38.2 µM | > 100 µM | 26 µM | > 100 µM | 9.56 µM | > 100 µM | 23.5 µM | > 100 µM | > 100 µM | > 100 µM | 37.1 µM | > 100 µM | > 100 µM | > 100 µM | > 100 µM | > 100 µM
CCN(CC)CCCC(C)Nc1cc(-c2ccc(C(F)(F)F)cc2)c(C#N)c2nc3ccccc3n12 (centres undefined) | 0.846 µM | > 100 µM | 1.66 µM | 3.43 µM | 1.82 µM | 4.86 µM | – | – | 2.1 µM | 4.88 µM | 1.96 µM | 5.22 µM | 2.29 µM | 5.15 µM | 2.29 µM | 5.82 µM | 2.38 µM | 5.58 µM | 1.82 µM | 3.61 µM
C=C(C)[C@@H]1CC[C@]2(C(N)=O)CC[C@]3(C)[C@H](CC[C@@H]4[C@@]5(C)CC[C@H](O)C(C)(C)[C@@H]5CC[C@]43C)[C@@H]12 | 4.49 µM | > 100 µM | 2.69 µM | 8.86 µM | 5.74 µM | > 100 µM | 3.32 µM | 14.5 µM | 2.91 µM | 11.2 µM | 3.53 µM | 24.9 µM | 3.78 µM | 16.5 µM | 2.96 µM | 18.2 µM | 2.56 µM | 7.42 µM | 2.12 µM | 4.84 µM
C[C@H](N)C(=O)N[C@@H]1[C@H]2C(=C(O)C[C@@H](O)[C@@H]2O)C(=O)O[C@]1(C)C(Cl)Cl | 0.108 µM and 0.087 µM | 2.25 µM and 1.58 µM | 0.223 µM | 1.19 µM and 0.736 µM | – | 0.634 µM | 0.441 µM | 7.79 µM and 2.43 µM | – | 1.52 µM | 0.261 µM and 0.161 µM | 2.57 µM and 2.35 µM | – | 7.44 µM and 3.44 µM | 0.472 µM | 4.66 µM and 2.23 µM | 0.282 µM | 1.69 µM and 1.3 µM | 0.146 µM | 1.4 µM and 1.2 µM
O=c1[nH]cc(/C=N\Nc2ccccc2)c(=O)[nH]1 | – | > 100 µM | – | > 100 µM | – | > 100 µM | – | > 100 µM | – | > 100 µM | – | > 100 µM | – | > 100 µM | – | > 100 µM | – | > 100 µM | – | > 100 µM
